The record followed here is ChEMBL document CHEMBL1250475, “Inhibition of monoamine oxidase by indole and benzofuran derivatives” (Eur J Med Chem, 2010).

The term IC50 denotes the point on the concentration scale where inhibition reaches its midpoint. The term Ki denotes a dissociation constant, usually derived from enzyme kinetics or from competition with a known ligand.

One data set is filed under the species Homo sapiens. In words: Selectivity ratio of Ki for human recombinant MAOA to Ki for human recombinant MAOB.
The target in data set [1] is T1, Amine oxidase [flavin-containing] A (Homo sapiens, UniProt P21397).
T1 sequence (P21397 whole entry): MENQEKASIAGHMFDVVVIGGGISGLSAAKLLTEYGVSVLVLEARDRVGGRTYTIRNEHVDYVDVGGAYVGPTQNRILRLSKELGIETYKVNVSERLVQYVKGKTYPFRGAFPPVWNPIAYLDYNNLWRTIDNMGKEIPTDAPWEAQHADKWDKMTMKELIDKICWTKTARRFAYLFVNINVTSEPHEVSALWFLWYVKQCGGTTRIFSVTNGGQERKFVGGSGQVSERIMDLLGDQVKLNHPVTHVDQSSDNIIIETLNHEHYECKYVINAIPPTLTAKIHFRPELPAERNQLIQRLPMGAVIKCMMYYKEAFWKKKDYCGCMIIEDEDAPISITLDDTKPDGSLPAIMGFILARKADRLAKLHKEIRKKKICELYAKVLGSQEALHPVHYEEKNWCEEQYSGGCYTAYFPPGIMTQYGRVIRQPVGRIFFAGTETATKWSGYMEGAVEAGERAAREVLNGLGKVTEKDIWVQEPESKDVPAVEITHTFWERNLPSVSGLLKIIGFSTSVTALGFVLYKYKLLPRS
In words: Inhibition of human recombinant MAOA expressed in baculovirus infected BTI insect cells after 20 mins by spectrofluorimetric analysis.

Data set [2] concerns the target T2, Amine oxidase [flavin-containing] B (Homo sapiens, UniProt P27338).
T2 sequence (P27338 whole entry): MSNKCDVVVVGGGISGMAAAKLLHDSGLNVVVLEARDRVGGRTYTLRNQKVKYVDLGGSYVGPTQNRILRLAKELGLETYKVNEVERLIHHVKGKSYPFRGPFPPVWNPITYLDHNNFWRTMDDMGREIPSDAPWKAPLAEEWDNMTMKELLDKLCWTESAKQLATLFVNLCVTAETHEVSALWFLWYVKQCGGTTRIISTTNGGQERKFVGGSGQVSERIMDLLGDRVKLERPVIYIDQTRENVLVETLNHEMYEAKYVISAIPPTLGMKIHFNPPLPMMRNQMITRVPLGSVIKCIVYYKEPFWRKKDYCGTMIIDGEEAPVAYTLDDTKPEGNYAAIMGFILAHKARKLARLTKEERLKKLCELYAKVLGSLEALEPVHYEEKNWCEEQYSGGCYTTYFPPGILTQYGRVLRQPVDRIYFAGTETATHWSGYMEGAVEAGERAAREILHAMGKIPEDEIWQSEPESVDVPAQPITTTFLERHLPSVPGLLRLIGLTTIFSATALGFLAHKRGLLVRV
In words: Inhibition of human recombinant MAOB expressed in baculovirus infected BTI insect cells after 20 mins by spectrofluorimetric analysis.

For data set [3], the target named is T2, Amine oxidase [flavin-containing] B. Put plainly: Reversible inhibition of human recombinant MAOB expressed in baculovirus infected BTI insect cells at 2 times IC50 concentration preincubated for 60 mins measured after 15 mins. The settings on record: 0.25 h.
The target is the same in data set [4]. In words: Competitive inhibition of human recombinant MAOB expressed in baculovirus infected BTI insect cells at 0.015 to 0.06 uM by Lineweaver-Burke plot analysis.

For the compound `Cc1cc2cc(NC(=O)C3CCCCC3)ccc2[nH]1`, the Selectivity ratio in the data set listed under Homo sapiens came out at 6. Further, the 50% inhibitory concentration (IC50) in data set [1] is 69.4 µM; in data set [2], 6.96 µM. For the same compound, the Ki in data set [1] was 18.3 µM; in data set [2], 3 µM.

In the case of `Cc1cc2cc(NC(=O)c3cccc(S(=O)(=O)O)c3)ccc2[nH]1`, the Selectivity ratio in the data set filed under Homo sapiens was 0.9. The IC50 in data set [1] is 259 µM; in data set [2] it was 176 µM. In addition, the Ki was 68.3 µM in data set [1] and 75.7 µM in data set [2].

Consider `Cc1cc2cc(NC(=O)/C=C/c3cccc(Cl)c3)ccc2[nH]1`, for which, in the data set filed under Homo sapiens, the Selectivity ratio stood at 0.5. The IC50 in data set [1] is 7.67 µM; in data set [2] it was 9.83 µM. In addition, the results for the Ki in data set [1] and in data set [2] were 2.02 µM and 4.23 µM, respectively.

For the compound `O=C(/C=C/c1cccc(Cl)c1)Oc1ccc2c(c1)CC(=O)O2`, the Selectivity ratio in the data set listed under Homo sapiens is 5. For the same compound, the IC50 in data set [1] stood at 3.9 µM; in data set [2], 0.44 µM. In addition, the Ki in data set [1] worked out at 1.03 µM; in data set [2], 0.19 µM.

For the compound `Cc1cc2cc(NC(=O)c3cccc(Cl)c3)ccc2[nH]1`, the Selectivity ratio in the data set filed under Homo sapiens came out at 25. Moreover, the IC50 in data set [1] came to 31 µM; in data set [2], 0.76 µM. Also, the Ki was 8.18 µM in data set [1] and 0.33 µM in data set [2].

Consider `O=C1Cc2cc(OC(=O)c3cccc(Cl)c3)ccc2O1`, for which the Selectivity ratio in the data set filed under Homo sapiens amounted to 5. Besides, in data set [1], the IC50 was 7.66 µM and the Ki stood at 2.02 µM. In data set [2], the IC50 turned out to be 0.99 µM and the Ki worked out at 0.43 µM. In addition, the “inhibition (INH)” value in data set [3] is listed as “Active”.

Turning to `Cc1cc2cc(NC(=O)c3ccc(Cl)c(Cl)c3)ccc2[nH]1`, the Selectivity ratio in the data set filed under Homo sapiens was determined as 99. Also, the results for the IC50 in data set [1] and in data set [2] were 9.79 µM and 0.06 µM, respectively. The Ki in data set [1] turned out to be 2.58 µM; in data set [2], 0.03 µM. Besides, the “inhibition (INH)” value in data set [4] and in data set [3] was “Active” throughout.

With `Cc1cc2cc(NC(=O)c3ccc[n+](C)c3)ccc2[nH]1`, in data set [1], the IC50 is 20.8 µM and the Ki was 5.47 µM.

For the compound `O=C1Cc2cc(OC(=O)c3ccccc3)ccc2O1`, the Selectivity ratio in the data set listed under Homo sapiens stood at 0.8. In addition, in data set [1], the concentration for half-maximal inhibition (IC50) stood at 11.6 µM and the Ki is 3.05 µM. Also, in data set [2], the concentration for half-maximal inhibition (IC50) amounted to 8.89 µM and the Ki is 3.83 µM.

Take `Cc1cc2cc(NC(=O)c3ccccc3)ccc2[nH]1`: the Selectivity ratio in the data set listed under Homo sapiens came out at 24. Also, in data set [1], the IC50 turned out to be 150 µM and the Ki was determined as 39.5 µM. For the same compound, in data set [2], the half-maximal inhibitory concentration (IC50) came out at 3.84 µM and the Ki is 1.65 µM.

For the compound `Cc1cc2cc(NC(=O)/C=C/c3ccccc3)ccc2[nH]1`, the Selectivity ratio in the data set filed under Homo sapiens turned out to be 22. In data set [1], the IC50 is 663 µM and the Ki is 175 µM. Also, in data set [2], the IC50 was determined as 18.8 µM and the Ki worked out at 8.01 µM.

`O=C(/C=C/c1ccccc1)Oc1ccc2c(c1)CC(=O)O2`: in the data set listed under Homo sapiens, the Selectivity ratio is 6. In addition, in data set [1], the IC50 was determined as 12.5 µM and the Ki worked out at 3.29 µM. For the same compound, in data set [2], the IC50 turned out to be 1.2 µM and the Ki is 0.52 µM.
